In publication PMC3504148, “Enteropeptidase: A Gene Associated with a Starvation Human Phenotype and a Novel Target for Obesity Treatment” (PLoS ONE, 2012):

Legend:
[1] = Pharmacokinetics in mice, IV and oral; assay type: in vivo, male Swiss mice
Experimental: Figure 5 Pharmacokinetics of OBE-2008 in mice following intravenous (1 mg/kg, dark blue) and oral (10 mg/kg, light blue) dosing. Number of mice per group n = 3.
This study aimed to determine the fate of OBE lead in mice after intravenous (IV; 1 mg/kg) and oral (PO; 10 mg/kg) administration. Blood was taken from two animals at each sampling time from T = 0 to T = 6 h after IV administration, and from T = 0 to T = 24 h after oral administration. Samples were analyzed for OBE lead using LC/MS/MS methodology. For each IV and PO routes, three male Swiss mice aged 10-weeks were included in the experiment. The animals OBE IV-1, OBE IV-2 and OBE IV-3 were treated at T = 0 with 1 mg/kg of OBE lead using 2 mL/kg. The injection was performed in the jugular vein under isoflurane anaesthesia. The animals OBE PO-1, OBE PO-2 and OBE PO-3 were treated at T = 0 with 10 mg/kg of OBE lead using 5 mL/kg. The solution to be administered was delivered by gavage, using a gastric cannula. About 50–75 µL of blood were sampled from the retro orbital sinus. The blood was immediately centrifuged at 3500 rpm (+4°C) for 5 minutes. Protein precipitation was conducted by adding a volume of 400 µL of acetonitrile to 10 µL of plasma in Teflon vials. After centrifugation, an aliquot of the supernatant (+4°C auto-sampler; injected volume = 10 µL) was immediately analyzed by LC/MS/MS (column: HILIC Silica 5 µM 2.1×150 mm; isocratic elution using an ACN/pH3 buffer (70/30, V/V) eluant containing 1% formic acid; flow rate = 0.25 mL/min. The MS system operated in the ESI mode, and the ionization source was heated at 350°C). Chromatographic peaks areas were than calculated and plotted against time.

[2] = test system: fasted mice given oral fat overload; test: Effect on triglycerides absorption in mouse; assay type: in vivo; conditions: for decrease of fatty acids absorption (plasma triglycerides AUC): up to 6 hours, p<0.05
Experimental: (§1) Figure 4 The mechanism-based efficacy of OBE-2008 on enteropeptidase was evaluated based on triglycerides (left) and amino acids (right) absorption. Red = control; dark green = dose of 5 mg/kg; light green = dose of 50 mg/kg. Number of mice per group n = 3 (right) for amino acids, and n = 8 (left) for triglycerides. Statistical comparison between control and treated group were conducted by two-sided unpaired Student’s tests. Asterisks (*) indicate p values versus control. A p value of<0.05 was considered to show a statistically significant difference.
The aim of the study was to evaluate the duration of effect of OBE lead on triglycerides absorption in mice after oral administration. The study involved 3 groups of 8 male animals each. Group 1: water; Group 2: OBE lead at 5 mg/kg; Group 3: OBE lead at 50 mg/kg. On the day of the test, all animals were given an oral fat overload. The preparation to be administered (OBE lead or its vehicle) was diluted at 1/100 in 10 mL of clinoleic acid 20. In all animals, about 60 µL were sampled via retro orbital sinus at time points: before dosing, 1, 2, 3, 5 and 6 hours post-dosing. The blood samples were prepared within 30 minutes of sampling by centrifugation for 10 minutes at 1500 g. All plasma samples were dosed for triglycerides. The effects of test items on triglycerides absorption were conducted by two-side unpaired Student’s test. A p value of<0.05 was considered to show a statistically significant difference.

[3] = test system: fasted mice given radiolabeled proteins; test: Effect on 14C-protein absorption in mouse; assay type: in vivo, male Swiss mice; conditions: 240 minutes, not statistically significant
Experimental: as §1
The aim of the study was to evaluate the duration of effect of OBE lead on absorption of ^14C-proteins after oral administration in mice. Fifteen male Swiss mice were divided in 3 groups; Group 1: water and ^14C-proteins; Group 2: OBE lead 5 mg/Kg and ^14C-proteins; Group 3: OBE lead 50 mg/Kg and ^14C-proteins. A preparation containing 5 ml of Clinoleic 20 (Baxter Ref DDB9500) with 1 g of glucose (Sigma; ref:G8270) and 1 g of casein (Sigma; ref: C3400) was prepared. […] About 4 ml Pico-fluor 40 was added and after shaking, the total radioactivity contained within the different samples was determined by liquid scintillation using a Packard 1900 CA spectrometer equipped with an external standard system. […]

[4] = test system: mouse model of diet-induced obesity (DIO); test: Long term effect in mice fed with DIO regimen; assay type: in vivo, male Swiss mice
Experimental: Figure 3 Effect of OBE-2008 administered before night phase on food consumption (left) and body weight (right) in mice. Red = control; dark green = dose of 10 mg/kg/day; light green = dose of 25 mg/kg/day. Number of mice per group n = 10. Statistical comparison between control and treated group were conducted by Dunnett’s tests. Asterisks (*) indicate p values versus control. A p value of<0.05 was considered to show a statistically significant difference.
The anti-obesity effect of OBE lead in a diet induced obesity model (45% kcal from lipids and 20% from proteins, reference 824053 from Special Diet Services, UK) was evaluated following daily oral administration in mice for 63 days. The study involved 3 groups of 10 male Swiss mice; Group 1: water; Group 2: OBE lead at 10 mg/kg/day; Group 3: OBE lead at 25 mg/kg/day. Animal were weighted daily. Food consumption was measured daily for each animal, except during fasted periods. For all groups, the food was given ad libitum. Body weights are given as means ± SEM (Standard Error of the Mean). The effects of test items on body weight and food consumption were expressed as absolute values and compared with those of the vehicle using multiple comparison procedure with a Dunnett’s test in case of significance (P≤0.05).

detectability in plasma ([1]; intravenous 1 mg/kg): undetectable after 2 hours | plasma half-life ([1]; intravenous 1 mg/kg): minutes | calculated bioavailability ([1]; oral 10 mg/kg vs intravenous 1 mg/kg): 2–3%
SMILES: CC(=O)N[C@@H](C)C(=O)N[C@@H](Cc1ccccc1)C(=O)N[C@@H](CCCCN)B1O[C@@H]2C[C@@H]3C[C@@H](C3(C)C)[C@]2(C)O1 [OBE-2008]
maximum level of triglycerides in plasma after 1 hour vs control ([2]; 5 mg/kg and 50 mg/kg oral): substantially lower than in the control group | decrease of fatty acids absorption (plasma triglycerides AUC) ([2]; 5 mg/kg oral): 33% | decrease of fatty acids absorption (plasma triglycerides AUC) ([2]; 50 mg/kg oral): 32% | decrease of total protein absorption (AUC) ([3]; 5 mg/kg oral): 17% | decrease of total protein absorption (AUC) ([3]; 50 mg/kg oral): 22% | side effects such as steatorrhea or diarrhea ([4]; long-term oral treatment): no side effects | reduction of weight gain relative to control group ([4]; oral 10 mg/kg daily, up to 9 weeks): 6% | reduction of weight gain relative to control group ([4]; oral 25 mg/kg daily, up to 9 weeks): 10% | effect on food consumption ([4]; oral daily 10 and 25 mg/kg, up to 9 weeks, food ad libitum): no effect
